According to PubChem BioAssay AID2060599 (Molecular Pharmacology Branch, DTP, NCI, 2025):

Tested on: 817829-284-R-J1-PDC complex spheroids, viability
Test: Anticancer human tumor 817829-284-R-J1-PDC patient-derived colon adenocarcinoma cell line growth inhibition [CLK]
Details: for viability, T/C: stronger effect = lower value
Method in brief: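 Multi-cell-type spheroids combined patient-derived tumor cells with HUVEC endothelial cells and human mesenchymal stem cells. Paired agents were dosed in half-log steps down from about clinical Cmax, or from 10 microM where Cmax was unknown.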

[1] = curve of first compound, second compound 0.0316 µM
[2] = curve of first compound, second compound 0.1 µM
[3] = curve of first compound, second compound 0.316 µM
[4] = curve of first compound, second compound 1 µM
[5] = curve of first compound, second compound 3.16 µM
[6] = curve of first compound, second compound 10 µM
[7] = second compound 0.0316 µM, first compound 0.0316 µM
[8] = second compound 0.0316 µM, first compound 0.1 µM
[9] = second compound 0.0316 µM, first compound 0.316 µM
[10] = second compound 0.0316 µM, first compound 1 µM
[11] = second compound 0.1 µM, first compound 0.0316 µM
[12] = second compound 0.1 µM, first compound 0.1 µM
[13] = second compound 0.1 µM, first compound 0.316 µM
[14] = second compound 0.1 µM, first compound 1 µM
[15] = second compound 0.316 µM, first compound 0.0316 µM
[16] = second compound 0.316 µM, first compound 0.1 µM
[17] = second compound 0.316 µM, first compound 0.316 µM
[18] = second compound 0.316 µM, first compound 1 µM
[19] = second compound 1 µM, first compound 0.0316 µM
[20] = second compound 1 µM, first compound 0.1 µM
[21] = second compound 1 µM, first compound 0.316 µM
[22] = second compound 1 µM, first compound 1 µM
[23] = second compound 3.16 µM, first compound 0.0316 µM
[24] = second compound 3.16 µM, first compound 0.1 µM
[25] = second compound 3.16 µM, first compound 0.316 µM
[26] = second compound 3.16 µM, first compound 1 µM
[27] = second compound 10 µM, first compound 0.0316 µM
[28] = second compound 10 µM, first compound 0.1 µM
[29] = second compound 10 µM, first compound 0.316 µM
[30] = second compound 10 µM, first compound 1 µM
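Further: spheroids exposed to the agents for seven days before readout.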

C=CC(=O)N1CCN(c2nc(=O)n(-c3c(C)ccnc3C(C)C)c3nc(-c4c(O)cccc4F)c(F)cc23)C(C)C1 (centres undefined) + CN1CCN(c2cc(C(=O)Nc3cc4cc(-c5cnn(C)c5)ccc4cn3)ccn2)CC1
IC50 [1]: 3090 nM | IC50 [2]: < 31.6 nM | IC50 [3]: < 31.6 nM | IC50 [4]: < 31.6 nM | IC50 [5]: < 31.6 nM | IC50 [6]: < 31.6 nM | viability, T/C [7]: 75.7% | viability, T/C [8]: 70.6% | viability, T/C [9]: 60.9% | viability, T/C [10]: 76.9% | viability, T/C (second compound 0.0316 µM, first compound 3.16 µM): 49.6% | viability, T/C (second compound 0.0316 µM, first compound 10 µM): 32.2% | viability, T/C [11]: 24.9% | viability, T/C [12]: 25.4% | viability, T/C [13]: 22.4% | viability, T/C [14]: 22.8% | viability, T/C (second compound 0.1 µM, first compound 3.16 µM): 16.1% | viability, T/C (second compound 0.1 µM, first compound 10 µM): 10.7% | viability, T/C [15]: 2.69% | viability, T/C [16]: 2.73% | viability, T/C [17]: 3% | viability, T/C [18]: 3.05% | viability, T/C (second compound 0.316 µM, first compound 3.16 µM): 3.47% | viability, T/C (second compound 0.316 µM, first compound 10 µM): 1.56% | viability, T/C [19]: 0.15% | viability, T/C [20]: 0.15% | viability, T/C [21]: 0.22% | viability, T/C [22]: 0.15% | viability, T/C (second compound 1 µM, first compound 3.16 µM): 0.1% | viability, T/C (second compound 1 µM, first compound 10 µM): 0.16% | viability, T/C [23]: 0.16% | viability, T/C [24]: 0.28% | viability, T/C [25]: 0.2% | viability, T/C [26]: 0.16% | viability, T/C (second compound 3.16 µM, first compound 3.16 µM): 0.51% | viability, T/C (second compound 3.16 µM, first compound 10 µM): 0.15% | viability, T/C [27]: 0.08% | viability, T/C [28]: 0.11% | viability, T/C [29]: 0.12% | viability, T/C [30]: 0.13% | viability, T/C (second compound 10 µM, first compound 3.16 µM): 0.12% | viability, T/C (second compound 10 µM, first compound 10 µM): 0.13%

CCN1CCN(Cc2ccc(Nc3ncc(F)c(-c4cc(F)c5nc(C)n(C(C)C)c5c4)n3)nc2)CC1 + CN1CCN(c2cc(C(=O)Nc3cc4cc(-c5cnn(C)c5)ccc4cn3)ccn2)CC1
IC50 [1]: 21.1 nM | IC50 [2]: < 3.16 nM | IC50 [3]: < 3.16 nM | IC50 [4]: < 3.16 nM | IC50 [5]: < 3.16 nM | IC50 [6]: < 3.16 nM | viability, T/C (second compound 0.0316 µM, first compound 0.00316 µM): 49.6% | viability, T/C (second compound 0.0316 µM, first compound 0.01 µM): 64.4% | viability, T/C [7]: 46.2% | viability, T/C [8]: 36.6% | viability, T/C [9]: 36.9% | viability, T/C [10]: 29.2% | viability, T/C (second compound 0.1 µM, first compound 0.00316 µM): 17.4% | viability, T/C (second compound 0.1 µM, first compound 0.01 µM): 16.2% | viability, T/C [11]: 15.4% | viability, T/C [12]: 20.7% | viability, T/C [13]: 18.7% | viability, T/C [14]: 11.8% | viability, T/C (second compound 0.316 µM, first compound 0.00316 µM): 1.34% | viability, T/C (second compound 0.316 µM, first compound 0.01 µM): 1.6% | viability, T/C [15]: 1.6% | viability, T/C [16]: 1.6% | viability, T/C [17]: 2.31% | viability, T/C [18]: 0.61% | viability, T/C (second compound 1 µM, first compound 0.00316 µM): 0.17% | viability, T/C (second compound 1 µM, first compound 0.01 µM): 0.12% | viability, T/C [19]: 0.08% | viability, T/C [20]: 0.08% | viability, T/C [21]: 0.1% | viability, T/C [22]: 0.19% | viability, T/C (second compound 3.16 µM, first compound 0.00316 µM): 0.13% | viability, T/C (second compound 3.16 µM, first compound 0.01 µM): 0.14% | viability, T/C [23]: 0.12% | viability, T/C [24]: 0.15% | viability, T/C [25]: 0.12% | viability, T/C [26]: 0.1% | viability, T/C (second compound 10 µM, first compound 0.00316 µM): 0.09% | viability, T/C (second compound 10 µM, first compound 0.01 µM): 0.1% | viability, T/C [27]: 0.08% | viability, T/C [28]: 0.09% | viability, T/C [29]: 0.11% | viability, T/C [30]: 0.08%

NC(=O)C(=Cn1cnc(-c2cc(C(F)(F)F)cc(C(F)(F)F)c2)n1)c1cncnc1 + CN1CCN(c2cc(C(=O)Nc3cc4cc(-c5cnn(C)c5)ccc4cn3)ccn2)CC1
IC50 [1]: < 9.49 nM | IC50 [2]: < 9.49 nM | IC50 [3]: < 9.49 nM | IC50 [4]: < 9.49 nM | IC50 [5]: < 9.49 nM | IC50 [6]: < 9.49 nM | viability, T/C (second compound 0.0316 µM, first compound 0.00949 µM): 21.1% | viability, T/C (second compound 0.0316 µM, first compound 0.03 µM): 19.4% | viability, T/C (second compound 0.0316 µM, first compound 0.0949 µM): 8.87% | viability, T/C (second compound 0.0316 µM, first compound 0.3 µM): 2.37% | viability, T/C (second compound 0.0316 µM, first compound 0.949 µM): 1.3% | viability, T/C (second compound 0.0316 µM, first compound 3 µM): 0.87% | viability, T/C (second compound 0.1 µM, first compound 0.00949 µM): 7.2% | viability, T/C (second compound 0.1 µM, first compound 0.03 µM): 4.72% | viability, T/C (second compound 0.1 µM, first compound 0.0949 µM): 1.8% | viability, T/C (second compound 0.1 µM, first compound 0.3 µM): 0.15% | viability, T/C (second compound 0.1 µM, first compound 0.949 µM): 0.19% | viability, T/C (second compound 0.1 µM, first compound 3 µM): 0.22% | viability, T/C (second compound 0.316 µM, first compound 0.00949 µM): 0.46% | viability, T/C (second compound 0.316 µM, first compound 0.03 µM): 0.1% | viability, T/C (second compound 0.316 µM, first compound 0.0949 µM): 0.07% | viability, T/C (second compound 0.316 µM, first compound 0.3 µM): 0.05% | viability, T/C (second compound 0.316 µM, first compound 0.949 µM): 0.06% | viability, T/C (second compound 0.316 µM, first compound 3 µM): 0.17% | viability, T/C (second compound 1 µM, first compound 0.00949 µM): 0.06% | viability, T/C (second compound 1 µM, first compound 0.03 µM): 0.09% | viability, T/C (second compound 1 µM, first compound 0.0949 µM): 0.13% | viability, T/C (second compound 1 µM, first compound 0.3 µM): 0.1% | viability, T/C (second compound 1 µM, first compound 0.949 µM): 0.12% | viability, T/C (second compound 1 µM, first compound 3 µM): 0.29% | viability, T/C (second compound 3.16 µM, first compound 0.00949 µM): 0.06% | viability, T/C (second compound 3.16 µM, first compound 0.03 µM): 0.16% | viability, T/C (second compound 3.16 µM, first compound 0.0949 µM): 0.19% | viability, T/C (second compound 3.16 µM, first compound 0.3 µM): 0.12% | viability, T/C (second compound 3.16 µM, first compound 0.949 µM): 0.17% | viability, T/C (second compound 3.16 µM, first compound 3 µM): 0.21% | viability, T/C (second compound 10 µM, first compound 0.00949 µM): 0.02% | viability, T/C (second compound 10 µM, first compound 0.03 µM): 0.09% | viability, T/C (second compound 10 µM, first compound 0.0949 µM): 0.13% | viability, T/C (second compound 10 µM, first compound 0.3 µM): 0.1% | viability, T/C (second compound 10 µM, first compound 0.949 µM): 0.17% | viability, T/C (second compound 10 µM, first compound 3 µM): 0.11%

CC1COCCN1c1cc(C2(S(C)(=N)=O)CC2)nc(-c2ccnc3[nH]ccc23)n1 (centres undefined)
viability, T/C (compound 0.0316 µM): 63.5% | viability, T/C (compound 0.1 µM): 99.9% | viability, T/C (compound 0.316 µM): 62.4% | viability, T/C (compound 1 µM): 39% | viability, T/C (compound 3.16 µM): 9.17% | viability, T/C (compound 10 µM): 4.99% | IC50 (curve of compound): 626 nM

COc1ccc([C@@H](O)c2cc(-c3ncnc4cc(N5CCOCC5)ccc34)c(F)cc2Cl)nn1
viability, T/C (compound 0.0316 µM): 117% | viability, T/C (compound 0.1 µM): 105% | viability, T/C (compound 0.316 µM): 86.4% | viability, T/C (compound 1 µM): 48.6% | viability, T/C (compound 3.16 µM): 31.6% | viability, T/C (compound 10 µM): 21.2% | IC50 (curve of compound): 1040 nM

Nc1ccccc1NC(=O)c1ccc(CNC(=O)OCc2cccnc2)cc1
viability, T/C (compound 0.0316 µM): 89% | viability, T/C (compound 0.1 µM): 85.3% | viability, T/C (compound 0.316 µM): 53.5% | viability, T/C (compound 1 µM): 35.9% | viability, T/C (compound 3.16 µM): 10% | viability, T/C (compound 10 µM): 0.1% | IC50 (curve of compound): 465 nM

CN1CCN(c2cc(C(=O)Nc3cc4cc(-c5cnn(C)c5)ccc4cn3)ccn2)CC1
viability, T/C (compound 0.0316 µM): 70.5% [middle of 12 runs] | viability, T/C (compound 0.1 µM): 20% [middle of 12 runs] | viability, T/C (compound 0.316 µM): 2.17% [middle of 12 runs] | viability, T/C (compound 1 µM): 0.13% [middle of 8 runs] | viability, T/C (compound 3.16 µM): 0.17% [middle of 7 runs] | viability, T/C (compound 10 µM): 0.13% [middle of 8 runs] | IC50 (compound alone, run of 08/14/2023): 49.5 nM [middle of 12 runs]
